Reference: ChEMBL document CHEMBL1201862, “PubChem BioAssay data set” (2004)
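Five compound concentrations were applied to cells in 96-well plates for 48 hours; endpoints were derived by simple linear interpolation of the resulting dose-response curve. GI50 is the concentration that inhibits growth by half.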 The source made the active and inactive calls. No stated cut-off is given here; in the data, active = GI50 up to about 1.1 µM and inactive = higher.

How the values were obtained:
Assay in all cases: DTP human tumour cell line panel, 48 h
CCRF-CEM = system: CCRF-CEM
SK-MEL-5 = system: SK-MEL-5
HT-29 = system: HT-29
HCT-15 = system: HCT-15
A498 = system: A498
SK-MEL-28 = system: SK-MEL-28
NCI/ADR-RES = system: NCI/ADR-RES
SNB-75 = system: SNB-75
NCI-H460 = system: NCI-H460
K562 = system: K562
OVCAR-5 = system: OVCAR-5
A549 = system: A549
U-251 = system: U-251
TK-10 = system: TK-10
MDA-MB-435 = system: MDA-MB-435
UACC-257 = system: UACC-257
NCI-H226 = system: NCI-H226
M14 = system: M14
HOP-62 = system: HOP-62
SK-OV-3 = system: SK-OV-3

Structure (SMILES) | GI50 (CCRF-CEM) | GI50 (SK-MEL-5) | GI50 (HT-29) | GI50 (HCT-15) [µM] | GI50 (A498) | GI50 (SK-MEL-28) | GI50 (NCI/ADR-RES) | GI50 (SNB-75) | GI50 (NCI-H460) | GI50 (K562) | GI50 (OVCAR-5) | GI50 (A549) | GI50 (U-251) | GI50 (TK-10) | GI50 (MDA-MB-435) | GI50 (UACC-257) | GI50 (NCI-H226) | GI50 (M14) | GI50 (HOP-62) | GI50 (SK-OV-3)
O=C(CCNC12CC3CC(CC(C3)C1)C2)c1ccccc1 | 11.6 µM (inactive) | 17.9 µM (inactive) | 2.79 µM (inactive) | 16.5 | 17.4 µM (inactive) | 22.3 µM (inactive) | 21.2 µM (inactive) | 33 µM (inactive) | 19.6 µM (inactive) | 14.3 µM (inactive) | 21.2 µM (inactive) | 30.1 µM (inactive) | 15.1 µM (inactive) | 18.2 µM (inactive) | 26.5 µM (inactive) | 15.3 µM (inactive) | 33.1 µM (inactive) | 17.8 µM (inactive) | – | –
FC(F)(F)c1n[nH]c(SCc2ccc(Cl)cc2)n1 | – | > 100 µM (inactive) | > 100 µM (inactive) | > 100 | > 100 µM (inactive) | > 100 µM (inactive) | > 100 µM (inactive) | > 100 µM (inactive) | > 100 µM (inactive) | > 100 µM (inactive) | > 100 µM (inactive) | > 100 µM (inactive) | > 100 µM (inactive) | > 100 µM (inactive) | > 100 µM (inactive) | > 100 µM (inactive) | > 100 µM (inactive) | > 100 µM (inactive) | > 100 µM (inactive) | > 100 µM (inactive)
COC1=C[C@]2(CCC(=O)O2)[C@@H]2Cc3ccccc3[C@H](O)[C@@H]2C1=O | 15.1 µM (inactive) | 17.5 µM (inactive) | > 100 µM (inactive) | 41.1 | > 100 µM (inactive) | > 100 µM (inactive) | 97.9 µM (inactive) | – | 85.9 µM (inactive) | 38.4 µM (inactive) | > 100 µM (inactive) | > 100 µM (inactive) | 27.7 µM (inactive) | > 100 µM (inactive) | 16.9 µM (inactive) | 22.1 µM (inactive) | 86.5 µM (inactive) | > 100 µM (inactive) | 69.3 µM (inactive) | > 100 µM (inactive)
NC(=O)NC(=O)c1cccc(NC(=O)CBr)c1 | < 0.01 µM (active) | < 0.0119 µM (active) | < 0.0168 µM (active) | < 0.0161 | 0.102 µM (active) | 1.44 µM (inactive) | < 0.0171 µM (active) | – | < 0.0509 µM (active) | < 0.01 µM (active) | < 0.0204 µM (active) | 0.912 µM (active) | < 0.018 µM (active) | < 0.0231 µM (active) | < 0.0143 µM (active) | < 0.0311 µM (active) | < 0.0188 µM (active) | 0.198 µM (active) | 0.0577 µM (active) | 0.0272 µM (active)
CCCCc1ccc(Nc2nc3c(ncn3C3CC(O)C(CN=[N+]=[N-])O3)c(=O)[nH]2)cc1 (configuration not stated) | > 100 µM (inactive) | > 100 µM (inactive) | > 100 µM (inactive) | > 100 | > 100 µM (inactive) | > 100 µM (inactive) | > 100 µM (inactive) | > 100 µM (inactive) | > 100 µM (inactive) | > 100 µM (inactive) | > 100 µM (inactive) | > 100 µM (inactive) | > 100 µM (inactive) | – | > 100 µM (inactive) | > 100 µM (inactive) | > 100 µM (inactive) | > 100 µM (inactive) | > 100 µM (inactive) | > 100 µM (inactive)
Cc1cc(C)nc(NS(=O)(=O)c2ccc(Nc3c4ccccc4nc4c(C(=O)NCCCN(CCO)CCO)cccc34)cc2)n1 | 7.66 µM (inactive) | 14.8 µM (inactive) | 12.9 µM (inactive) | 49.2 | 54.3 µM (inactive) | 14.2 µM (inactive) | > 100 µM (inactive) | 3.35 µM (inactive) | 7.48 µM (inactive) | 10.6 µM (inactive) | 26.4 µM (inactive) | 26.4 µM (inactive) | 13.9 µM (inactive) | > 100 µM (inactive) | 16 µM (inactive) | > 100 µM (inactive) | – | 31.8 µM (inactive) | 17.1 µM (inactive) | 50.1 µM (inactive)
O=c1c(NCc2ccccc2)c(C2(c3ccccc3F)SCCCS2)c1=O | > 100 µM (inactive) | > 100 µM (inactive) | > 100 µM (inactive) | > 100 | 82.8 µM (inactive) | > 100 µM (inactive) | > 100 µM (inactive) | > 100 µM (inactive) | > 100 µM (inactive) | – | > 100 µM (inactive) | > 100 µM (inactive) | > 100 µM (inactive) | > 100 µM (inactive) | 19.5 µM (inactive) | > 100 µM (inactive) | > 100 µM (inactive) | > 100 µM (inactive) | > 100 µM (inactive) | > 100 µM (inactive)
